Assay: molar heat capacity at saturation pressure
Conditions: Small (less than 1 g) adiabatic calorimetry

C=CC(C)(C)O [2-methyl-3-buten-2-ol]
molar heat capacity [J/K/mol]
Conditions | Crystal 1 | Crystal 2
5 K | – | 0.3244
5.363 K | – | 0.4026
5.571 K | – | 0.4523
5.832 K | – | 0.524
6.097 K | – | 0.6053
6.395 K | – | 0.7063
6.727 K | – | 0.8287
7.065 K | – | 0.9656
7.409 K | – | 1.117
7.759 K | – | 1.284
8.114 K | – | 1.466
8.474 K | – | 1.662
8.837 K | – | 1.874
9.202 K | – | 2.099
9.571 K | – | 2.338
9.942 K | – | 2.587
10 K | – | 2.631
10.42 K | – | 2.931
11.01 K | – | 3.375
11.6 K | – | 3.843
12.19 K | – | 4.339
12.79 K | – | 4.858
13.39 K | – | 5.395
14 K | – | 5.954
14.61 K | – | 6.523
15 K | – | 6.921
15.22 K | – | 7.118
15.95 K | – | 7.872
16.79 K | – | 8.742
17.63 K | – | 9.598
18.48 K | – | 10.46
19.32 K | – | 11.32
20 K | – | 12.04
20.18 K | – | 12.2
21.37 K | – | 13.46
22.9 K | – | 15.06
24.44 K | – | 16.66
25 K | – | 17.22
25.98 K | – | 18.24
27.53 K | – | 19.75
28.81 K | – | 20.98
30 K | – | 22.12
30.24 K | – | 22.33
31.96 K | – | 23.92
33.85 K | – | 25.59
35 K | – | 26.55
35.75 K | – | 27.18
37.65 K | – | 28.7
39.55 K | – | 30.18
40 K | – | 30.53
41.55 K | – | 31.7
43.65 K | – | 33.27
45 K | – | 34.27
45.75 K | – | 34.79
47.85 K | – | 36.31
49.95 K | – | 37.78
50 K | – | 37.8
52.05 K | – | 39.21
54.16 K | – | 40.59
56.27 K | – | 41.96
58.39 K | – | 43.29
60 K | – | 44.33
60.51 K | – | 44.64
62.64 K | – | 45.97
64.76 K | – | 47.34
66.88 K | – | 48.71
69.01 K | – | 50.1
70 K | – | 50.7
71.24 K | – | 51.62
73.58 K | – | 53.27
75.92 K | – | 55.14
77.87 K | – | 57.21
78.23 K | – | 57.58
78.27 K | – | 57.34
78.34 K | – | 57.57
79.01 K | – | 58.22
79.1 K | – | 58.39
79.23 K | – | 58.44
79.68 K | – | 58.95
79.83 K | – | 59.11
80 K | – | 57.08
80.23 K | – | 59.74
80.33 K | – | 59.84
80.34 K | – | 59.8
80.38 K | – | 59.82
80.93 K | – | 60.61
81.01 K | – | 60.76
81.36 K | – | 61.46
81.48 K | – | 61.53
81.67 K | – | 61.8
82.03 K | – | 62.46
82.27 K | – | 62.81
82.34 K | – | 62.96
82.49 K | – | 63.36
82.57 K | – | 63.46
83 K | – | 64.02
83.12 K | – | 64.33
83.61 K | – | 65.12
83.66 K | – | 65.08
84.19 K | – | 66.18
84.2 K | – | 65.98
84.31 K | – | 66.19
84.72 K | – | 67.2
84.74 K | – | 67.26
84.97 K | – | 67.69
85.28 K | – | 68.9
85.62 K | – | 69.64
85.81 K | – | 71.17
85.82 K | – | 71.29
86.07 K | – | 73.72
86.26 K | – | 73.39
86.33 K | – | 74.69
88.1 K | 61.32 | 62.25
89.48 K | 65.12 | –
89.49 K | 64.37 | –
89.61 K | 64.85 | –
90 K | 62.35 | –
90.04 K | 63.82 | –
90.18 K | 63.5 | –
90.62 K | 63.44 | –
90.78 K | 63.53 | –
90.87 K | 63.45 | –
91.19 K | 63.49 | –
91.32 K | 63.69 | –
91.57 K | 63.46 | –
91.77 K | 63.59 | –
91.97 K | 63.75 | –
92.27 K | 63.73 | –
92.34 K | 63.78 | –
92.92 K | 64.01 | –
92.97 K | 64.05 | –
93.15 K | 64.24 | –
93.36 K | 64.34 | –
93.5 K | 64.26 | –
93.67 K | 64.43 | –
94.08 K | 64.54 | –
94.35 K | 64.76 | –
94.37 K | 64.82 | –
94.67 K | 64.85 | –
95.08 K | 65.12 | –
95.25 K | 65.18 | –
95.42 K | 65.33 | –
95.55 K | 65.34 | –
96.34 K | 65.8 | –
96.44 K | 65.84 | –
96.75 K | 65.99 | –
97.48 K | 66.4 | –
97.95 K | 66.62 | –
98.15 K | 66.74 | –
98.26 K | 66.77 | –
99.15 K | 67.27 | –
99.55 K | 67.5 | –
99.97 K | 67.73 | –
100 K | 67.72 | –
101.8 K | 68.7 | –
101.81 K | 68.72 | –
103.63 K | 69.68 | –
104.26 K | 70.06 | –
105.46 K | 70.68 | –
106.72 K | 71.41 | –
107.3 K | 71.7 | –
109.14 K | 72.73 | –
109.18 K | 72.79 | –
110 K | 73.25 | –
110.98 K | 73.78 | –
111.65 K | 74.18 | –
112.82 K | 74.82 | –
114.12 K | 75.6 | –
114.67 K | 75.87 | –
116.51 K | 76.95 | –
116.6 K | 77.03 | –
118.36 K | 78.04 | –
119.07 K | 78.49 | –
120 K | 78.98 | –
120.2 K | 79.15 | –
121.55 K | 79.98 | –
122.05 K | 80.25 | –
123.9 K | 81.37 | –
124.02 K | 81.49 | –
125.74 K | 82.53 | –
126.49 K | 83.07 | –
127.59 K | 83.73 | –
128.96 K | 84.71 | –
129.43 K | 85.04 | –
130 K | 85.52 | –
131.26 K | 86.38 | –
131.43 K | 86.54 | –
133.1 K | 87.73 | –
133.88 K | 88.39 | –
134.93 K | 89.13 | –
136.33 K | 90.2 | –
136.76 K | 90.46 | –
138.58 K | 91.75 | –
138.78 K | 91.98 | –
140 K | 92.84 | –
140.4 K | 93.1 | –
141.22 K | 93.76 | –
142.22 K | 94.49 | –
143.66 K | 95.62 | –
144.04 K | 95.9 | –
145.85 K | 97.31 | –
146.09 K | 97.56 | –
147.65 K | 98.82 | –
148.5 K | 99.58 | –
149.45 K | 100.3 | –
150 K | 100.8 | –
150.92 K | 101.6 | –
151.37 K | 102 | –
153.32 K | 103.8 | –
153.4 K | 103.9 | –
155.42 K | 105.7 | –
155.71 K | 106 | –
157.44 K | 107.7 | –
158.09 K | 108.4 | –
159.45 K | 109.7 | –
160 K | 110.3 | –
160.45 K | 110.8 | –
161.45 K | 111.8 | –
162.8 K | 113.2 | –
163.44 K | 113.9 | –
165.14 K | 115.7 | –
165.42 K | 116 | –
167.39 K | 118.2 | –
167.47 K | 118.3 | –

Reference: the NIST ThermoML archive (doi:10.1016/j.jct.2015.07.028)
